# Assay results: publication PMC10974084, “Combination of Betulinic Acid Fragments and Carbonic Anhydrase Inhibitors—A New Drug Targeting Approach” (Pharmaceutics, 2024)
# Tests used:
# [1] = test system: A2780 ovarian cancer cells; experiment: SRB cytotoxicity assay, A2780; type: cell-based; conditions: Homo sapiens, A2780; SRB assay, 96 h incubation, mean ± SD; read-out: IC50 A2780
# Experimental: (§1) All of the compounds were dissolved in dimethyl sulfoxide (DMSO) to achieve a 20 mM stock solution. Cells were seeded in cell culture flasks 24 h before treatment. The treatment was performed for 24 h.
# (§2) The cytotoxicity of the drugs was determined in 2D tumor models using sulforhodamine B (SRB) assays. Treatment started 24 h after seeding the tumor cells in 96-well plates as previously described.
# A375 melanoma cells = experiment: SRB cytotoxicity assay, A375; type: cell-based; conditions: Homo sapiens, A-375; SRB assay, 96 h incubation, mean ± SD; read-out: IC50 A375
# Experimental: as §1, §2
# [2] = target: recombinant human carbonic anhydrase IX (Homo sapiens, UniProt Q16790); experiment: hCA IX esterase assay with p-nitrophenyl acetate; conditions: p-nitrophenyl acetate substrate, competitive inhibition, pH 7.5, 20 °C
# Experimental: In this measurement, the enzymatically catalyzed hydrolysis of p-nitrophenyl acetate to p-nitrophenol was investigated. […] This was followed by measurement of the v-S-characteristics with inhibitor. […] For each run, 2 experimental series (biological replicate) were prepared simultaneously and measured for 10 min at a measurement interval of 8 s, also as a two-fold determination (technical replicate). […] The resulting reaction velocities, calculated from a calibration curve with p-nitrophenole under the same conditions, were plotted against the substrate concentration. The kinetic evaluation for competitive inhibition was then performed with the program GraphPad Prism.
# [3] = test system: MCF-7 breast cancer cells; experiment: SRB cytotoxicity assay, MCF-7; type: cell-based; conditions: Homo sapiens, MCF7; SRB assay, 96 h incubation, mean ± SD; read-out: IC50 MCF-7
# Experimental: as §1, §2
# hypoxia-induced hCA IX = hypoxia-induced hCA IX (Homo sapiens, UniProt Q16790); experiment: Cell-based hCA IX inhibition, Wilbur-Anderson method, hypoxic Hs578T cells; conditions: 20 µM, 3 h, vs untreated hypoxic cells
# Experimental: In a cell-based system, the changes of extracellular pH due to activity of hypoxia-induced hCA IX were determined. Hydration of CO2 to hydrogen carbonate and a proton catalyzed by extracellular hCA IX are the basis for detecting changes in pH depending on activity of hCA IX. Breast cancer cells (Hs578T) were cultured under hypoxic conditions for induction of hCA IX expression and afterwards treated with 20 µM of each substance for 3 h. Normoxic and hypoxic cells without treatment were used as reference. Cells were washed, scraped down, and resuspended in ice-cold isotonic buffer.
# Hs578T spheroids = test system: Hs578T spheroids; parameters: method as in PMID 36780832; conditions: Hs578T versus MDA-MB-231 spheroids; cited from earlier work
SMILES,IC50 [1],IC50 (A375 melanoma cells),Ki Values of hCA IX [2],IC50 [3],inhibition of hypoxia-induced hCA IX activity (relative WAU) (hypoxia-induced hCA IX),resistance of Hs578T spheroids (Hs578T spheroids)
"C=C(C)[C@@H]1CC[C@]2(C(=O)O)CC[C@]3(C)[C@H](CC[C@@H]4[C@@]5(C)CC[C@H](O)C(C)(C)[C@@H]5CC[C@]43C)[C@@H]12 [BA, betulinic acid]",12.5 ± 1.8 µM,13.1 ± 0.9 µM,n.i.,13 ± 1 µM,no potential to inhibit hCA IX activity,–
COc1cccc2c1C(=O)c1c(O)c3c(c(O)c1C2=O)C[C@@](O)(C(=O)CO)C[C@@H]3O[C@H]1C[C@H](N)[C@H](O)[C@H](C)O1 [doxorubicin],–,–,–,–,–,60 fold
CC(=O)O[C@H]1C(=O)[C@@]2(C)[C@H]([C@H](OC(=O)c3ccccc3)[C@]3(O)C[C@H](OC(=O)[C@H](O)[C@@H](NC(=O)c4ccccc4)c4ccccc4)C(C)=C1C3(C)C)[C@]1(OC(C)=O)CO[C@@H]1C[C@@H]2O [paclitaxel],–,–,–,–,–,20 fold
